This is an account of results in US5773423A (priority 1994, dated 1998).

Assay [1] concerns the target T1, A2 receptors from rat striatal membranes (Rattus norvegicus, UniProt P30543).
T1 construct: Rat cerebral cortical and striatal membranes were prepared; from tissue; host or cells: rat striatal membranes
The experiment in a line: Radioligand binding at A2 (A2a) receptors, displacement of [3H]CGS 21680 (or [3H]NECA with 50 nM CPA) from rat striatal membranes.

In assay [2] the target is T2, A1 receptors from rat brain membranes (Rattus norvegicus, UniProt P25099).
T2 construct: Rat cerebral cortical and striatal membranes were prepared; from tissue; host or cells: rat brain (cerebral cortical) membranes
T2 sequence (P25099 1-326): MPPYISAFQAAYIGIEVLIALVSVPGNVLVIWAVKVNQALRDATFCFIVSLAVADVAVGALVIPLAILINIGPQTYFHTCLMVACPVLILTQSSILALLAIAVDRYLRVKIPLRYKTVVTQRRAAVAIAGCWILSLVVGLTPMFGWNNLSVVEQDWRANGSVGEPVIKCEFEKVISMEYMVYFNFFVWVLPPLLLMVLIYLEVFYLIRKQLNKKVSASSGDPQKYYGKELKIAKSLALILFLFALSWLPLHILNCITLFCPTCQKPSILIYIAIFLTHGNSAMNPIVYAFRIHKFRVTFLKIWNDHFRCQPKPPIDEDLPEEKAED
Description: biochemical. In kind it is binding. The note with it: for inhibition at 100 µM: read-out: A1 percent displacement; for Ki: rat brain membranes.

Where [3] appears, read: at 100 μM, read-out: A2 percent displacement.
Where [4] appears, read: read-out: A2 percent displacement.
Setting [5] is: rat striatal membranes, displacement of [3H]CGS 21680 (or [3H]NECA + 50 nM CPA), read-out: A2 affinity Ki.
Setting [6] is: displacement of [3H]PIA (or [3H]CHA), read-out: A1 affinity Ki.
The mark [7] stands for this setting: read-out: percent displacement of radioligand at A2.
Setting [8] is: Table 4, [3H]PIA, read-out: Ki (A1).
[9] abbreviates: Table 4, [3H]CGS 21680, rat striatal membranes, read-out: Ki (A2).

Read-outs that look alike come from different tables or passages of the source.

T1 sequence (P30543 whole entry): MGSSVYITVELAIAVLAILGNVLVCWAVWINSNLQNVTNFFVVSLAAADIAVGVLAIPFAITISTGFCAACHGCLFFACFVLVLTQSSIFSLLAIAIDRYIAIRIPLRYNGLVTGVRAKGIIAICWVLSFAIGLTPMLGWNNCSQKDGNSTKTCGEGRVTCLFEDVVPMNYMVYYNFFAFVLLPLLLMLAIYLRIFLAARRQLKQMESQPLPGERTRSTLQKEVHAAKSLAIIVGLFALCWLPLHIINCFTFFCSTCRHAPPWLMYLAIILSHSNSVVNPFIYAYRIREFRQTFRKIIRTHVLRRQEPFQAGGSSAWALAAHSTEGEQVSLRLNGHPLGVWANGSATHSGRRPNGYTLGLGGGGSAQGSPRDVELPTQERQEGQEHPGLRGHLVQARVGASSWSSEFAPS

In the case of `Nc1ncnc2c1ncn2[C@]1(CO)O[C@H](CO)[C@@H](O)[C@H]1O` [Compound 80, β-D-psicofuranosyladenine, reference compound], the figures for the inhibition at 100 µM in assay [1] (setting [3]) and in assay [2] were 51.5 ± 7.4% and 36.1 ± 4.9%, respectively.
With `O=c1[nH]c(=O)c2ncn([C@@H]3O[C@H](CO)[C@@H](O)[C@H]3O)c2[nH]1` [Compound 81, xanthosine, reference compound], the inhibition at 100 µM in assay [1] (setting [3]) was found to be 8.5 ± 2.5%; in assay [2] (at 100 μM), 9.1 ± 2.4%.
On to `O=c1ccn([C@@H]2O[C@H](CO)[C@@H](O)[C@H]2O)c(=O)[nH]1` [Compound 82, uridine, reference compound], for which the inhibition at 100 µM in assay [1] (setting [4]) worked out at 2.8 ± 5.2%; in assay [2] (at 100 μM), 14.3 ± 6.9%.
Turning to `Cc1cn([C@H]2C[C@H](O)[C@@H](CO)O2)c(=O)[nH]c1=O` [Compound 83, thymidine, reference compound], the inhibition at 100 µM in assay [1] (setting [4]) worked out at 1.7 ± 3.4%; in assay [2] (at 100 μM), 23.4 ± 2.5%.
As for `Nc1ccn([C@@H]2O[C@H](CO)[C@@H](O)[C@H]2O)c(=O)n1` [Compound 84, cytidine, reference compound], the values for the inhibition at 100 µM in assay [1] (setting [4]) and in assay [2] were 16 ± 1.5% and 18 ± 1.2%, respectively.
In the case of `OC[C@H]1O[C@@H](n2cnc3c(O)ncnc32)[C@H](O)[C@@H]1O` [Compound 85, inosine, reference compound], the Ki in assay [1] (setting [5]) came out at 50 µM; in assay [2] (setting [6]), 16.7 µM.
On the same counts, the results for `Nc1nc2c(ncn2[C@@H]2O[C@H](CO)[C@@H](O)[C@H]2O)c(=O)[nH]1` [Compound 86, guanosine, reference compound] are 8.5 µM and 27.8 µM.
`Nc1nc(SCc2ccc([N+](=O)[O-])cc2)c2ncn([C@@H]3O[C@H](CO)[C@@H](O)[C@H]3O)c2n1` [Compound 87, (4-nitrobenzyl)-6-thioguanosine, reference compound]: the results for the inhibition constant Ki in assay [1] (setting [5]) and in assay [2] (setting [6]) were 48.5 µM and 15 µM, respectively.
Take `Nc1nc2c(ncn2[C@@H]2O[C@H](CO)[C@@H](O)[C@H]2O)c(=S)[nH]1` [Compound 88, 6-thioguanosine, reference compound]: the inhibition at 100 µM in assay [1] (setting [3]) was found to be 27.7 ± 5.8%; in assay [2] (at 100 μM), 44.2 ± 2.3%.
Take `OC[C@H]1O[C@@H](n2cnc3c(=S)[nH]cnc32)[C@H](O)[C@@H]1O` [Compound 89, 6-thiopurine riboside, reference compound]: the values for the inhibition at 100 µM in assay [1] (setting [4]) and in assay [2] (at 100 μM) were 33.6 ± 3.3% and 61.2 ± 3.9%, respectively.
On to `CNC(=O)[C@H]1O[C@@H](n2cnc3c(=O)[nH]cnc32)[C@H](O)[C@@H]1O` [Compound 90, inosine-5'-N-methyluronamide], for which the inhibition at 100 µM in assay [1] (setting [4]) was 6.2 ± 4.2%; in assay [2] (at 100 μM) it was 0%.
For `CCNC(=O)[C@H]1O[C@@H](n2cnc3c(=O)[nH]cnc32)[C@H](O)[C@@H]1O` [Compound 91, inosine-5'-N-ethyluronamide], the IC50 in assay [1] and in assay [2] was greater than 100 µM in each case. The inhibition at 100 µM was 30.6 ± 2.3% in assay [1] (setting [4]) and 43.7 ± 10.3% in assay [2].
For `Cn1cnc2[nH]c(=O)[nH]c(=O)c21` [Compound 101, 7-methylX, reference compound], the inhibition at 100 µM worked out at 37.7 ± 4.9% in assay [1] (setting [4]) and 52.3 ± 7.9% in assay [2] (at 100 μM).
In the case of `Cn1c(=O)[nH]c2c(ncn2C)c1=O` [Compound 105, 1,9-dimethylX, reference compound], the results for the inhibition at 100 µM in assay [1] (setting [4]) and in assay [2] (at 100 μM) were 6 ± 6.3% and 29.4 ± 1.6%, respectively.
For the compound `Cn1cnc2c(=O)[nH]c(=O)n(C)c21` [Compound 107, 3,9-dimethylX, reference compound], the inhibition at 100 µM in assay [1] (setting [4]) was 4.2 ± 5.9%; in assay [2] (at 100 μM) it was 19.7 ± 7.9%.
For `CCCCCCn1c(=O)c2[nH]cnc2n(CCCCCC)c1=O` [Compound 110, 1,3-dihexylX, reference compound], the inhibition at 10 µM in assay [1] (setting [4]) turned out to be 14.3 ± 3%. Also, the Ki in assay [2] (setting [6]) stood at 1.26 µM.
In the case of `CCCn1c(=S)[nH]c(=O)c2[nH]cnc21` [Compound 114, 2-thio-3-propylX, reference compound], the Ki in assay [1] (setting [5]) was 32.5 µM; in assay [2] (setting [6]) it was 26.1 µM.
Take `Cn1c(=O)c2c(ncn2[C@@H]2O[C@H](CO)[C@@H](O)[C@H]2O)n(C)c1=O` [Compound 117, theophylline-7-riboside, reference compound]: in assay [1] (setting [7]), the inhibition at 100 µM worked out at 2%. The Ki in assay [2] (setting [8]) was found to be 27 µM.
Consider `CCCn1c(=O)c2c(ncn2[C@@H]2O[C@H](CO)[C@@H](O)[C@H]2O)n(CCC)c1=O` [Compound 118, 1,3-di-n-propylxanthine-7-β-D-ribofuranoside, reference compound], for which the inhibition at 100 µM in assay [1] (setting [4]) worked out at 32 ± 1.1%; in assay [1] (setting [7]), 32%. For the same compound, the Ki in assay [2] (setting [6]) amounted to 15.9 µM.
For `CCCCn1c(=O)c2c(ncn2[C@@H]2O[C@H](CO)[C@@H](O)[C@H]2O)n(CCCC)c1=O` [Compound 119, 1,3-di-n-butylxanthine-7-β-D-ribofuranoside], the Ki in assay [1] (setting [5]) amounted to 19.5 µM; in assay [2] (setting [6]) it was 4.19 µM.
As to `CCCCn1c(=O)n(Cc2ccccc2)c(=O)c2c1ncn2[C@@H]1O[C@H](CO)[C@@H](O)[C@H]1O` [Compound 120, 1-benzyl-3-butylxanthine-7-β-D-ribofuranoside], the Ki was 8.67 µM in assay [1] (setting [9]), 3.8 µM in assay [1] (setting [5]) and 2.19 µM in assay [2] (setting [8]). In assay [2], the “potency increase at A1 and A2a receptors vs 1,3-di-n-butylxanthine-7-β-D-ribofuranoside” value is on record as 2-4 fold.
On to `CCCCn1c(=O)c2c(ncn2[C@@H]2O[C@H](CO)[C@@H](O)[C@H]2O)n(Cc2ccccc2)c1=O` [Compound 121, 3-benzyl-1-butylxanthine-7-β-D-ribofuranoside], for which the figures for the inhibition constant Ki in assay [1] (setting [9]), in assay [1] (setting [5]) and in assay [2] (setting [8]) were 4.51 µM, 4.51 µM and 1.72 ± 0.03 µM, respectively. The “potency increase at A1 and A2a receptors vs 1,3-di-n-butylxanthine-7-β-D-ribofuranoside” value in assay [2] (A1 and A2a receptors) is given as 2-4 fold.
With `CCCCn1c(=O)c2c(ncn2[C@@H]2O[C@H](C(=O)OC)[C@@H](O)[C@H]2O)n(CCCC)c1=O` [Compound 122, methyl 1,3-di-n-butylxanthine-7-β-D-ribofuronate], the inhibition at 3 µM in assay [1] (setting [7]) turned out to be 0%. Also, in assay [2] (setting [8]), the Ki came out at 3.72 µM.
On to `CCCCn1c(=O)c2c(ncn2[C@@H]2O[C@H](C(N)=O)[C@@H](O)[C@H]2O)n(CCCC)c1=O` [Compound 123, 1,3-di-n-butylxanthine-7-β-D-ribofuronamide], for which the Ki in assay [1] (setting [5]) was 59.2 µM; in assay [2] (setting [6]), 2.94 µM.
On the same counts, the results for `CCCCn1c(=O)c2c(ncn2[C@@H]2O[C@H](C(=O)NCC)[C@@H](O)[C@H]2O)n(CCCC)c1=O` [Compound 126, N-ethyl 1,3-di-n-butylxanthine-7-β-D-ribofuronamide] are 17 µM and 7.5 µM.
As to `CCCn1c(=O)[nH]c2nc(C3CCCC3)[nH]c2c1=O` [Compound 129, 8-cyclopentyl-1-propylX, reference compound], the Ki in assay [1] (setting [5]) stood at 48.7 µM; in assay [2] (setting [6]), 0.226 ± 0.037 µM.
On to `Cn1c(=O)c2[nH]c(Cl)nc2n(C)c1=O` [Compound 132, 8-chloroT, reference compound], for which the inhibition at 100 µM in assay [1] (setting [4]) stood at 24.7 ± 3.9%; in assay [2] (at 100 μM) it was 30.2 ± 6.7%.
In the case of `Nc1nc(NCc2cccc(I)c2)c2ncn([C@@H]3O[C@H](CO)[C@@H](O)[C@H]3O)c2n1` [Example 43, 2-amino-N^6-(3-iodobenzyl)-9-[β-D-ribofuranosyl]-adenine], the “factor less potent than N6-(3-iodobenzyl)-adenosine at A2a receptors” value in assay [1] stood at 6.7 factor. Moreover, the Ki is 0.117 ± 0.015 µM in assay [1] (Table 2, [3H]CGS 21680, rat striatal membranes, read-out: Ki (A2)) and 0.0638 ± 0.0151 µM in assay [2] (Table 2, [3H]PIA, read-out: Ki (A1)). The “factor less potent than N6-(3-iodobenzyl)-adenosine at A1 receptors” value in assay [2] was determined as 3.2 factor.
